Measured values as given in ChEMBL document CHEMBL1201862, “PubChem BioAssay data set” (2004).
Active and inactive are the calls of the source.

Experiments:
[1] = biological target: T1, Mitochondrial peptide methionine sulfoxide reductase (Bos taurus, UniProt P54149); experiment: Absorbance-based biochemical high throughput dose response assay for activators of Methionine sulfoxide reductase A (MsrA).; assay type: functional
T1 sequence (P54149 whole entry): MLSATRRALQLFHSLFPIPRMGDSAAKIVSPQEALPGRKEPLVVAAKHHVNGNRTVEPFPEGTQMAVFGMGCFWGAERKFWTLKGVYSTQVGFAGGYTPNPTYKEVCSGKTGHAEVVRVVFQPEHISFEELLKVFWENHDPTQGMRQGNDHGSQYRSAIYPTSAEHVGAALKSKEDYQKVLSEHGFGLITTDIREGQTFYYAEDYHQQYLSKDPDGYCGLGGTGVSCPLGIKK

Cytochrome P450 2C9 = Cytochrome P450 2C9 (Homo sapiens, UniProt P11712)
Cytochrome P450 2C19 = Cytochrome P450 2C19 (Homo sapiens, UniProt P33261); experiment: Cytochrome panel assay with activity outcomes. Panel member name: p450-cyp2c19 Compounds with AC50 equal or less than 10 uM are considered active; assay type: functional; conditions: read-out: AC50
Cytochrome P450 3A4 = Cytochrome P450 3A4 (Homo sapiens, UniProt P08684);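 further: CYP3A4 tested as one member of a cytochrome P450 panel screen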
Large T antigen = Large T antigen (Simian virus 40, UniProt P03070); assay type: functional, Betapolyomavirus macacae;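 further: Confirmatory-stage PubChem screen for compounds that inhibit SV40 T antigen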
[2] = biological target: Glucose-6-phosphate 1-dehydrogenase (Homo sapiens, UniProt P11413); experiment: inhibition of Homo sapiens G6PD, dose series – biochemical, fluorescence, selectivity assay for P. falciparum G6PD inhibitor project, dose response (AID 504792); assay type: functional
[3] = biological target: DNA dC->dU-editing enzyme APOBEC-3G (Homo sapiens, UniProt Q9HC16); experiment: Dose Response confirmation of small molecule APOBEC3G DNA Deaminase Inhibitors via a fluorescence-based single-stranded DNA deaminase assay. [Related pubchem assays (depositor defined):AID493012, AID493028]; assay type: functional
[4] = bead-based luminescence quenchers, dual-tagged ARNT – biochemical, AlphaScreen, cherry-pick, artefact control for ARNT-TACC3 interaction inhibitor project, dose response (AID 651705); assay type: functional;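 further: AlphaScreen bead proximity signal that flags compounds interfering with the detection technology; potency reflects signal decrease which marks the compound as an assay artifact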
cells = assay type: functional
[5] = biological target: T2, Adenosylmethionine-8-amino-7-oxononanoate aminotransferase (Mycobacterium tuberculosis, UniProt P9WQ81); experiment: Mycobacterium tuberculosis BioA enzyme inhibitor Measured in Biochemical System Using Plate Reader - 2163-02_Inhibitor_Dose_CherryPick_Activity.; assay type: functional, Mycobacterium tuberculosis UT205
T2 sequence (P9WQ81 whole entry): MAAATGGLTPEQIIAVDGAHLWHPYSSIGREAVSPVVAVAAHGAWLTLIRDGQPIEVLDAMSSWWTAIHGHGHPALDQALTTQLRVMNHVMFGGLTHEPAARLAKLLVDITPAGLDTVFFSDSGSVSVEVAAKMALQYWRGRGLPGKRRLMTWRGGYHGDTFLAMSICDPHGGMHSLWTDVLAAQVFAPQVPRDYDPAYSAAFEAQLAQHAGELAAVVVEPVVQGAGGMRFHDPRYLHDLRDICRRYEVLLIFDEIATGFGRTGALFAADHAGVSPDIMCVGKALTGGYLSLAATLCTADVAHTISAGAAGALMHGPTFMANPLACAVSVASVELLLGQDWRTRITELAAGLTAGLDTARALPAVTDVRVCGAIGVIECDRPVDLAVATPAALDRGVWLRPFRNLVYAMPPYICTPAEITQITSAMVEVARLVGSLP

Interleukin-8 = biological target: T3, Interleukin-8 (Homo sapiens, UniProt P10145); experiment: Dose Response confirmation of uHTS small molecule hits for cystic fibrosis induced NFkb Inhibitors in a PAF-induced IL8 counterscreen.; assay type: functional; conditions: read-out: IC50_Mean
T3 sequence (P10145 whole entry): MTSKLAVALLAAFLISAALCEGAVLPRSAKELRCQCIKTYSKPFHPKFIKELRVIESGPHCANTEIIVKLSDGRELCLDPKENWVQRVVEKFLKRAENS

[6] = biological target: 5-hydroxytryptamine receptor 2A (Mus musculus, UniProt P35363); assay type: functional, cell-based;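 further: CHO-K1 cells with tagged receptor and beta-arrestin; agonist potency measured as compound-induced activation of the receptor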
Mu-type opioid receptor = Mu-type opioid receptor (Homo sapiens, UniProt P35372); assay type: functional, cell-based;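 further: U2OS cells with beta-arrestin recruitment to OPRM1 by beta-gal complementation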
[7] = reduction of Shn3 3'UTR-driven luciferase in osteoblasts – cell-based, Clone20 osteoblasts, firefly luciferase, cherry-picked, dose response (AID 624132); assay type: functional;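 further: firefly luciferase luminescence from reporter carrying the Shn3 3'UTR in osteoblasts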
HEK293 = experiment: EBV LMP1 TES2 canonical NF-kB signalling blockers – cell-based, HEK293, luciferase, cherry-pick, dose response (AID 588343); assay type: functional; conditions: Homo sapiens
[8] = viability loss of HPDE-C7K cells – cell-based, fluorescence, HTS, primary screen (AID 431); assay type: functional; conditions: Homo sapiens
[9] = loss of viability in HepG2 cells – cell-based, CellTiter-Glo, cherry-picked, cytotoxicity control for Shn3 inhibitor project, dose response (AID 624134); assay type: functional
[10] = non-specific 3'UTR reporter inhibition in Clone20-Shn3RL – cell-based, Renilla luciferase, cherry-picked, counter-screen for Shn3 inhibitor project, dose response (AID 624133); assay type: functional
[11] = HPDE-C7 pancreatic duct cell viability loss – fluorescence, HTS (AID 430); assay type: functional, cell-based; conditions: Homo sapiens
[12] = HEK-293T viability loss after treatment – luminescence, T-cell screen hits, cytotoxicity control for TCR NF-kB inhibitor project, dose response (AID 489026); assay type: functional, cell-based;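 further: cells exposed to compound about 14 hours before the viability readout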
[13] = biological target: T4, DNA repair protein RAD52 homolog (Homo sapiens, UniProt P43351); assay type: functional, biochemical
T4 sequence (P43351 whole entry): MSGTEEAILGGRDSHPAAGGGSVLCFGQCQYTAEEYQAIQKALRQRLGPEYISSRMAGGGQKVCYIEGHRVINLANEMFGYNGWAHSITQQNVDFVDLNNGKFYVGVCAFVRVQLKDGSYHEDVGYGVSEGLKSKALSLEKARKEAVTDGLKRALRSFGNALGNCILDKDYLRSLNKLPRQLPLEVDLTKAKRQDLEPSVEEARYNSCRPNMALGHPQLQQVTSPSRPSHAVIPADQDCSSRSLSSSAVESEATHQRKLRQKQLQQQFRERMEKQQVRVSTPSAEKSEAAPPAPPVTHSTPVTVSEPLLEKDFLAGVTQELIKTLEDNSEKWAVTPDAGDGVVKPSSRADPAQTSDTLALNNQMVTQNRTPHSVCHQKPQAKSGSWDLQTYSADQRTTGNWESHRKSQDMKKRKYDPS

[14] = NIH-3T3 fibroblast cytotoxicity, dose response, cytotoxicity control, cell-based, fluorescence, Alamar Blue, secondary assay (AID 2327); assay type: functional;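 further: NIH-3T3 mouse fibroblasts cultured with fluconazole at 8 µg/mL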
INS1 = experiment: INS-1E survival protection against cytokine death – cell-based, luminescence, retest, dose response (AID 449756); assay type: functional; conditions: Rattus norvegicus;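 further: cell death triggered by IL-1 beta plus TNF-alpha plus IFN-gamma mixture; protective hits raise ATP signal compared with cytokine alone wells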
[15] = fluconazole-exposed Candida albicans growth modulators – fluorescence, retest, confirmation (AID 2467); assay type: functional, cell-based
[16] = biological target: SWI/SNF-related matrix-associated actin-dependent regulator of chromatin subfamily A member 2 (Homo sapiens, UniProt P51531); experiment: Luminescence-based cell-based high throughput dose response assay to identify activators of the function of SWI/SNF related, matrix associated, actin dependent regulator of chromatin, subfamily a, member 2 (SMARCA2, BRM).; assay type: functional
[17] = Counterscreen for activators of the function of SWI/SNF related, matrix associated, actin dependent regulator of chromatin, subfamily a, member 2 (SMARCA2, BRM): Luminescence-based cell-based high throughput dose response assay to identify non-selective compounds using the VP16 reporter assay.; assay type: functional

Cytochrome P450 3A4, sequence (P08684 whole entry): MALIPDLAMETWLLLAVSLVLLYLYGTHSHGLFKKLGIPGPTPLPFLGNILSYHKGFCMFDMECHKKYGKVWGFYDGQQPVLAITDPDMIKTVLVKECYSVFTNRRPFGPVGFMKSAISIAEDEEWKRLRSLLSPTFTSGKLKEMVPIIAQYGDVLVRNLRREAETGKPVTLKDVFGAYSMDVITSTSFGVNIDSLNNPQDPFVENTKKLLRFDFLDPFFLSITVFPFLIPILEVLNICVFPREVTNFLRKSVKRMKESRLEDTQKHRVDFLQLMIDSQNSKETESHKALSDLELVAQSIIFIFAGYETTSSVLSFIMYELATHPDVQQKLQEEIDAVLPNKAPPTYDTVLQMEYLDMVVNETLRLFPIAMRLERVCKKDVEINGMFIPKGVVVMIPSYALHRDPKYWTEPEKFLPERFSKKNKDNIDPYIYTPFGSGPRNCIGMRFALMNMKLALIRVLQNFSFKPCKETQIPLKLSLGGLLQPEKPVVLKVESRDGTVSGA
Cytochrome P450 2C19, sequence (P33261 whole entry): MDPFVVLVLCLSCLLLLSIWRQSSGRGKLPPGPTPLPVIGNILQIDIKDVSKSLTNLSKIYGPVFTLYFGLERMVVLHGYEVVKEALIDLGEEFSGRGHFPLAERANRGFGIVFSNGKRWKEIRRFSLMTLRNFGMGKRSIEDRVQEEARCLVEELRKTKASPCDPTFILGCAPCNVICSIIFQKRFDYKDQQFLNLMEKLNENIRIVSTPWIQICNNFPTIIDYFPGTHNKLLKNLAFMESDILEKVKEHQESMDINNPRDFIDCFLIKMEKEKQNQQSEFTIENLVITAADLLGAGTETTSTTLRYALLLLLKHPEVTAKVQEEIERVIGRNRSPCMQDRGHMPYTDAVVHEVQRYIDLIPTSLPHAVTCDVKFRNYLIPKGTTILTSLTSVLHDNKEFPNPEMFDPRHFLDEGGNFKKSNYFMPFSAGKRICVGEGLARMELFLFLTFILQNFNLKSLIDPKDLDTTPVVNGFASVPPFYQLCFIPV
5-hydroxytryptamine receptor 2A, sequence (P35363 whole entry): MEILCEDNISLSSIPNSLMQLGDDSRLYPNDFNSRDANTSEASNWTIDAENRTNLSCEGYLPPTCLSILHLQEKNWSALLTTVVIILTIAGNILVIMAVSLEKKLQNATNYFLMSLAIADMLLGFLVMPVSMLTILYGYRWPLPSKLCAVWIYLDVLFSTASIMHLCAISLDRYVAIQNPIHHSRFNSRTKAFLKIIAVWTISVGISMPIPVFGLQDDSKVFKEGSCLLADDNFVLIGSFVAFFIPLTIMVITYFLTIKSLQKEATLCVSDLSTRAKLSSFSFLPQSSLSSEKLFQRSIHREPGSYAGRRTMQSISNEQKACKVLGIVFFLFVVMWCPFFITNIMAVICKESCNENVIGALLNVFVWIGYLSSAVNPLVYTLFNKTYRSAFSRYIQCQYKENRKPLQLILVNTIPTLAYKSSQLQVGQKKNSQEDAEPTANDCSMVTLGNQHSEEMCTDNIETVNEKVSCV
DNA dC->dU-editing enzyme APOBEC-3G, sequence (Q9HC16 whole entry): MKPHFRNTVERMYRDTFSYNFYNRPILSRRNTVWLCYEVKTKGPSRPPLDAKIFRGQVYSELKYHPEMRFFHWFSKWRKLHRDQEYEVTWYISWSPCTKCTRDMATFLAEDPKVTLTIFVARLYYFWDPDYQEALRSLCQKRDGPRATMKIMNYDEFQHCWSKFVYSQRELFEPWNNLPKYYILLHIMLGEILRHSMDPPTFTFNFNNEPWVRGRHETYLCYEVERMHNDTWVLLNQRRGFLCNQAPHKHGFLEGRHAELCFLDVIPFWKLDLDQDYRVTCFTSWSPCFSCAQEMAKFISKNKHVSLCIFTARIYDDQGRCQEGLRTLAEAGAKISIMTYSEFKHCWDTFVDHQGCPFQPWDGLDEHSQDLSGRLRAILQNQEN
Mu-type opioid receptor, sequence (P35372 whole entry): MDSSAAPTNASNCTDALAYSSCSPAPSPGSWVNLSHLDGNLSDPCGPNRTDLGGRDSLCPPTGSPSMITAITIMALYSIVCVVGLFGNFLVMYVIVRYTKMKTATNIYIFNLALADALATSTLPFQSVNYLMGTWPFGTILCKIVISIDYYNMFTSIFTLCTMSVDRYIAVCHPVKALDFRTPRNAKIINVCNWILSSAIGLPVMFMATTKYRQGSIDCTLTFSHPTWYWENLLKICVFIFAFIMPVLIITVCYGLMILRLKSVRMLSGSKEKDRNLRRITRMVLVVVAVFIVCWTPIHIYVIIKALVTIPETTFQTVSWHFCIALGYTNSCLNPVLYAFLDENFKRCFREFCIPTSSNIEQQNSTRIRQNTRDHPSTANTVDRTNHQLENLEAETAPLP
Glucose-6-phosphate 1-dehydrogenase, sequence (P11413 whole entry): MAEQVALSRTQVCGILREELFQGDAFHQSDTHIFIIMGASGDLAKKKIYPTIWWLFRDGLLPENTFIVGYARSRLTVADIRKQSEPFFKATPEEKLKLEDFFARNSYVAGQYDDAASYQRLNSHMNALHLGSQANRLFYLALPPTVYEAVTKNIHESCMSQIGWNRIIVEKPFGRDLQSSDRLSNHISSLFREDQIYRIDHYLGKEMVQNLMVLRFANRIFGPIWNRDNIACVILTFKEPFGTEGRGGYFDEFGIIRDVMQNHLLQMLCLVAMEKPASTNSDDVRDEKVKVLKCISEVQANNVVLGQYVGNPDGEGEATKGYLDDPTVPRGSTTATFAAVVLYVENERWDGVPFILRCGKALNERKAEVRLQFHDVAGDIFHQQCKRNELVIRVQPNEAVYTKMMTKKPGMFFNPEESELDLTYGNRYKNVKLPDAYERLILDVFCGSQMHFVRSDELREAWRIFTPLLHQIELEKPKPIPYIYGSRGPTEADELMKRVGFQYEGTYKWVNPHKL
SWI/SNF-related matrix-associated actin-dependent regulator of chromatin subfamily A member 2, sequence (P51531 whole entry): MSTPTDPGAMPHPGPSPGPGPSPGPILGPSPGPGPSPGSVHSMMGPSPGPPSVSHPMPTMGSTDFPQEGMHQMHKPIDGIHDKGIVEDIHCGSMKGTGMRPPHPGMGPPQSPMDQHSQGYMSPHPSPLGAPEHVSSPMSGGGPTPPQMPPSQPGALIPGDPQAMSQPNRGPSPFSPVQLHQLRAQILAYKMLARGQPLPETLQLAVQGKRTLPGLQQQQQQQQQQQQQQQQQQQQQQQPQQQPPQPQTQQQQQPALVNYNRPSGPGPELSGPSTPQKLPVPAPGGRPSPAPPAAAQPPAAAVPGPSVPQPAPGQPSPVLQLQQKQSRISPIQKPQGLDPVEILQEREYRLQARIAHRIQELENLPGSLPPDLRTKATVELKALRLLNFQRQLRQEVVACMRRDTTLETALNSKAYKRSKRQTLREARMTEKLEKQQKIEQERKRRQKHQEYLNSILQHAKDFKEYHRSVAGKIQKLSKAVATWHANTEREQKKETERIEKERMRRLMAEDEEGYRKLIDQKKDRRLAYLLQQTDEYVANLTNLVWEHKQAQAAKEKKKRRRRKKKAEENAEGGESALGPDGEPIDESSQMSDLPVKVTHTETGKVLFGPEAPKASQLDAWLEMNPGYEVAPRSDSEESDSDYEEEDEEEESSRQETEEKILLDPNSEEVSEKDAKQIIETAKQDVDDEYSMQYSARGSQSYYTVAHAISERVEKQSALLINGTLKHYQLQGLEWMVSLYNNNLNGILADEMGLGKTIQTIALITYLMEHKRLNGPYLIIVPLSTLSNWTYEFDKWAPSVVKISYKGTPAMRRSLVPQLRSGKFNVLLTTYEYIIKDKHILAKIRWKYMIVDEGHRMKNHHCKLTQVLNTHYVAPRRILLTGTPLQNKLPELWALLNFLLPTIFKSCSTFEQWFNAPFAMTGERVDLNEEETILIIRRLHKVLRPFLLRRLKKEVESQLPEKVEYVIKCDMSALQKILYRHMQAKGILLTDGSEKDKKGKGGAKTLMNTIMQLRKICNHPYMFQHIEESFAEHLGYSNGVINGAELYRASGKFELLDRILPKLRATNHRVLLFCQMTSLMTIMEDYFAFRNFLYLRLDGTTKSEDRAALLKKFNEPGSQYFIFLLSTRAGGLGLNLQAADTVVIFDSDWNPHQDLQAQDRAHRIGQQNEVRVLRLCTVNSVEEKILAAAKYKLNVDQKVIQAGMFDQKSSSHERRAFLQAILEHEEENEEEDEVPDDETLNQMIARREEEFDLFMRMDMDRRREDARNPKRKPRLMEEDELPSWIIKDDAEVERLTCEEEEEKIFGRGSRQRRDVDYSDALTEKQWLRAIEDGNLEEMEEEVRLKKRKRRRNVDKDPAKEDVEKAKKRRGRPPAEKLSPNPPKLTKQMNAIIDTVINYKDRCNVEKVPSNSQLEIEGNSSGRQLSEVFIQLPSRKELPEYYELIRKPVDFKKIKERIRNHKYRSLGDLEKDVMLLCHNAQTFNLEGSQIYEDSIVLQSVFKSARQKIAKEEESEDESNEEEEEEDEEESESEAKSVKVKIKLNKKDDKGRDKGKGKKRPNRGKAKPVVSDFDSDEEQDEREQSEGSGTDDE
Cytochrome P450 2C9, sequence (P11712 whole entry): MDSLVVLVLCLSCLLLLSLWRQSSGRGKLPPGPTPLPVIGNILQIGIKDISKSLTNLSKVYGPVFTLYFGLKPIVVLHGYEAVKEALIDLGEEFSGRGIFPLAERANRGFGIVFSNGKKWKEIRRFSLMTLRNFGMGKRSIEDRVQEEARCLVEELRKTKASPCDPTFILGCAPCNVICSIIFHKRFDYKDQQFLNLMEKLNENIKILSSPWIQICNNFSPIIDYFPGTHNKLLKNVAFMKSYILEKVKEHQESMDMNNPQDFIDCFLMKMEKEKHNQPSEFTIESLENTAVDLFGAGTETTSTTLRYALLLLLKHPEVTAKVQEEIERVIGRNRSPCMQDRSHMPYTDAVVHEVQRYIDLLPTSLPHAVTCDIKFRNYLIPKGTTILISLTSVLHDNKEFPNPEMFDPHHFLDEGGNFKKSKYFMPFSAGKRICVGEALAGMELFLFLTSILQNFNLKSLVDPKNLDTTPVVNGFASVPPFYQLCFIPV

**Q.** With `Cc1ccc(-c2cc[nH]c(=S)n2)cc1` as the compound, how does the EC50 [1] read?
**A.** Its EC50 is > 104 µM (inactive).

**Q.** What about the AC50 (Cytochrome P450 2C9) of the same compound?
**A.** Its AC50 is 10 µM (inconclusive).

**Q.** What about the AC50 (Cytochrome P450 2C19) of the same compound?
**A.** Its AC50 is 14.1 µM (inconclusive).

**Q.** And the AC50 (Cytochrome P450 3A4)?
**A.** Its AC50 is 14.1 µM (inconclusive).

**Q.** Which IC50 (Large T antigen) does the source give for `OCc1ccccc1SSc1ccccc1CO` here?
**A.** Its IC50 is 11.4 µM (active).

**Q.** And the IC50 [2]?
**A.** Its IC50 is > 80 µM (inactive).

**Q.** And the EC50 [1]?
**A.** The EC50 was > 104 µM (inactive).

**Q.** And the IC50 [3]?
**A.** Its IC50 is 12.3 µM (active).

**Q.** For `Fc1ccc(-c2ccc(CNCc3ccccn3)o2)cc1Cl`, which AC50 [4] is on record?
**A.** The AC50 was 88.6 µM (active).

**Q.** And the IC50 (cells)?
**A.** Its IC50 is 4.34 µM (active).

**Q.** For `CC1CCCN(c2ccc(C(=O)Nc3cccnc3)cc2[N+](=O)[O-])C1` (stereo not given), which AC50 [5] is on record?
**A.** The AC50 was 1.11 µM (active).

**Q.** Which IC50 (Interleukin-8) does the source give for `CCn1c2ccccc2c2cc(/C=N/O)ccc21` here?
**A.** The IC50 was 7.06 µM (active).

**Q.** Which EC50 [6] does the source give for `COc1ccc(C2/C=C\CN(C(=O)C3CCCC3)CC(=O)N2Cc2ccc(F)cc2)cc1` (stereo not given) here?
**A.** The EC50 was 76.1 µM (inactive).

**Q.** What about the EC50 (Mu-type opioid receptor) of the same compound?
**A.** Its EC50 is 92.5 µM (inactive).

**Q.** Which AC50 [7] does the source give for `Fc1ccc2[nH]c3c(N4CCSCC4)ncnc3c2c1` here?
**A.** The AC50 was 2.76 µM (active).

**Q.** And the AC50 (HEK293)?
**A.** The AC50 was 1.5 µM (active).

**Q.** What about the EC50 [8] of the same compound?
**A.** The EC50 was 13.3 µM (active).

**Q.** What about the AC50 [9] of the same compound?
**A.** Its AC50 is 30 µM (active).

**Q.** What about the AC50 [10] of the same compound?
**A.** Its AC50 is 2.6 µM (active).

**Q.** And the EC50 [11]?
**A.** The EC50 was 13.4 µM (active).

**Q.** Which IC50 [12] does the source give for `CCCCCc1ccc(OCCCC[n+]2ccc(C)cc2)c(CCCCC)c1` here?
**A.** Its IC50 is 58 µM (inactive).

**Q.** What about the AC50 [13] of the same compound?
**A.** The AC50 was 21.7 µM (active).

**Q.** What about the EC50 [14] of the same compound?
**A.** Its EC50 is > 160 µM (inactive).

**Q.** And the AC50 (INS1)?
**A.** The AC50 was 1.92 µM (active).

**Q.** What about the EC50 [15] of the same compound?
**A.** Its EC50 is 0.516 µM (active).

**Q.** With `Cc1ccc(NC(=O)CNCc2ccccn2)cc1S(=O)(=O)N(C)C` as the compound, how does the AC50 [4] read?
**A.** Its AC50 is 127 µM (active).

**Q.** For `CC(=O)N1CC[C@@H]2[C@@H](CO)N(C)c3ccc(-c4ccccc4)cc3[C@@H]21`, which AC50 [5] is on record?
**A.** The AC50 was 8.17 µM (active).

**Q.** Which IC50 (Interleukin-8) does the source give for `CCNC(=O)C1(C)CCCN(Cc2ccc(-c3ccccc3)o2)C1` (stereo not given) here?
**A.** The IC50 was > 79 µM (inactive).

**Q.** Which EC50 [16] does the source give for `O=C(COC(=O)c1cccc(O)c1)c1ccccc1` here?
**A.** Its EC50 is > 91.1 µM (inactive).

**Q.** What about the EC50 [17] of the same compound?
**A.** The EC50 was > 91.1 µM (inactive).
